“Also recorded” adds a separate entry of the source. Blank lines part the entries; values can stand above or below the compound they belong to.
Tests used:
THP-1 human monocytes = experiment: Measurement of cellular NAD^+ levels in THP-1 cell cultures (NAD/NADH-Glo); assay type: cell-based; conditions: for potency in THP-1 relative to NP-A3-B2 (cellular EC50 not quantifiable): dose response studies; for ability to raise NAD^+ levels compared to the parent compound NP-A3-B2: initial screening, 3 μM, 24 hours, data not shown
Procedure: Measurement of cellular NAD^+ levels in THP-1 cell cultures. Using FK-866 and NMN as negative and positive controls, respectively, we explored a number of cell lines to select a highly reproducible model system with good dynamic range. We optimized a commercial NAD-glo assay in the THP-1 human leukemic monocyte cell line in 96-well plates, measuring NAD^+ after incubation with test compounds for 24 hours. […] All cells were grown at 37° C., under 5% CO2 in a humidified incubator. Low passage THP-1 cells (37,500 cells/well) were seeded in 96-well plates and incubated at 37° C. and 5% CO2 for 1½ h prior to a 24 h treatment. All compounds were dissolved in DMSO, and final DMSO concentrations never exceeded 1%. The NAD^+ levels in the cells are measured using the NAD^+/NADH-Glo™ assay (Promega). The assays were performed in triplicate for each concentration and the IC50 values were determined from non-linear regression analysis of the dose-response curve generated in GraphPad Prism 9.

[1] = system: HT-22 mouse hippocampal cell line; experiment: TNFα-induced ROS in HT-22 cells (MitoSOX); assay type: cell-based; conditions: for effect on ROS levels across tested concentrations: screened against 1 μg/mL TNFα (FIG. 2A)
Procedure: (§1) Cell Culture and Drug Treatments. HT22 mouse hippocampal neuronal cells (a gift from the Salk Institute) were grown in Dulbecco's modified Eagle's medium (DMEM) containing 10% FBS and 1× Antibiotic-Antimycotic (ABAM). Cells were maintained in a humidified 5% CO2 atmosphere incubator at 37° C., and were passaged when 60-80% confluent (1-2 days) by removing media, rinsing with phosphate buffered saline (PBS), and enzymatically detaching with trypsin solution. New culture dishes were seeded with ¼ to ½ the cells from the previous dish.
All assays were performed using cells with passage number 12-50. The inner 60 wells of black-walled (Corning®3603/3604) 96-well plates were treated with poly D-lysine (30 μL/well) making sure to cover the entire well surface for 15-30 seconds and then washed thoroughly with sterile water (3×−200 μL/well). TNFα stock solutions (10 μg/mL, PBS (0.1% BSA)) were made, aliquoted, and stored at −80° C. Glutamate stock solutions were made fresh immediately before assay. All compound stock solutions (10 mM, DMSO) were made and stored at −20° C.
Cells were plated at a seeding density of 3,000-5,000 cells/well and allowed to incubate overnight. The next day (18-24 hours later) cells were pretreated with N-PAMs, carefully ensuring equivalent vehicle (DMSO/PBS) composition in each well. After 18-24 hours, stressors (glutamate or TNFα) were treated. Live cell count, ROS level, and total cell count were then assessed after another 18-24 hours.
ROS Detection. ROS levels were quantified using MitoSOX Red Mitochondrial Superoxide Indicator (Invitrogen). At treatment endpoint, the cell culture media was removed and replaced with phosphate buffered saline (PBS) containing 1 μM calcein-AM, 5 μM MitoSOX, and 10 μg/mL Hoechst dyes. Cells were incubated for 30-45 minutes and then dye-containing PBS was dumped and replaced with 100 μL/well fresh PBS. The plate was immediately analyzed in the Celigo Imaging Cytometer using the Live-Dead-Total protocol, where MitoSOX was used in place of propidium iodide. The cell counts and fluorescence intensities for living (calcein), MitoSOX-stained, and total (Hoechst) were acquired. MitoSOX average mean fluorescence intensity (“dead” average mean intensity) was used to quantify mitochondrial ROS. All readouts used were transformed into fold-change over vehicle treatment for visualization.
We set out to design assays representing the connection between OS and the multifaceted pathophysiology of aging and ND. We assessed multiple treatments in several cell lines to model OS induced by diverse factors such as neuroinflammatory signaling, neurotransmitter signaling, and direct oxidant species. Assay development highlighted the neuronal HT-22 mouse hippocampal cell line as most robust for these purpose s, and inflammatory cytokine TNFα as being a reliable and disease-relevant method for inducing ROS generation.

NAMPT = biological target: T1, NAMPT (Homo sapiens, UniProt P43490); experiment: NAMPT coupled enzyme activity assay (HTS coupled three-enzyme assay); assay type: biochemical; conditions: dose-response (FIG. 1B)
T1 construct: His6 (C); made in house
Source text: NAMPT coupled enzyme activity assay. The NAMPT enzyme assay is based on conditions from Burgos and Schramm and adapted to include a cycling reaction to quantitate NAD^+ production colorimetrically^1. The assay follows the NAMPT-catalyzed production of NMN from substrates NAM and PRPP by coupling NMN formation to the NMNAT reaction, which produces NAD^+ from NMN and ATP. The NAD^+ is then cycled by alcohol dehydrogenase (ADH) and diaphorase to continuously produce WST-1 formazan, which can be detected at 450 nm. Assays are performed at 25° C. in clear 384-well plates, with a final assay volume of 30 μL, and contain the following: 50 mM HEPES, pH 7.5, 5 mM MgCl2, 50 mM NaCl, 0.01% Triton-X 100, 2.5 mM ATP, 40 μM PRPP, 1-500 μM NAM, 1.5 μL WST-1 (Roche Cell Proliferation Reagent), 1 U/mL ADH, 0.083 U/mL diaphorase, 1.5% ethanol, 1% DMSO, 30 nM NAMPT, and 7.4 nM purified human NMNAT1. N-terminal His6-NMNAT1 and C-terminal His6-NAMPT were overexpressed and purified by metal chelate affinity chromatography. Following assay assembly, well signals were measured continuously at 450 nm on a Tecan Infinite M200 plate reader for 1 h with intermittent shaking. Slopes of the linear portions of the reaction progress curves were recorded and corrected for background by subtracting the average slope of control wells containing NAMPT inhibitor FK866.
A high-throughput screen (HTS) of 22,000 compounds was performed to identify those that augment NAMPT enzymatic activity^38. Screening used a coupled three-enzyme assay to detect conversion of NAM to NAD^+, as previously described by our group^37. […] We also established assays in which to assess the ability of our compounds to mitigate neuronal oxidative stress.

[2] = system: HT-22 mouse hippocampal cell line; experiment: Glutamate-induced ROS in HT-22 cells (MitoSOX); assay type: cell-based; conditions: 75 mM glutamate
Procedure: as §1
All assays were performed using cells with passage number 12-50. […]
Cells were plated at a seeding density of 3,000-5,000 cells/well and allowed to incubate overnight. […] Live cell count, ROS level, and total cell count were then assessed after another 18-24 hours.
ROS Detection. ROS levels were quantified using MitoSOX Red Mitochondrial Superoxide Indicator (Invitrogen). […] The plate was immediately analyzed in the Celigo Imaging Cytometer using the Live-Dead-Total protocol, where MitoSOX was used in place of propidium iodide. The cell counts and fluorescence intensities for living (calcein), MitoSOX-stained, and total (Hoechst) were acquired. MitoSOX average mean fluorescence intensity (“dead” average mean intensity) was used to quantify mitochondrial ROS. All readouts used were transformed into fold-change over vehicle treatment for visualization.

GMC101 worms = conditions: 1 mM, 1-8 days; Sorrentino, V. et al. 2017; cited from earlier work
APPSwe/PSEN1dE9 mice = conditions: 400 mg/kg/d (p.o.) 10 weeks; Sorrentino, V. et al. 2017; cited from earlier work
[3] = system: Tg2576/PGC-1α knockout mice; conditions: 250 mg/kg/d (p.o) 3 months; Gong, B. et al. 2013; cited from earlier work
[4] = system: 3xTgAD, and 3xTgAD/Polβ^+/− mice; conditions: 12 mM in drinking water p.o. 6 months; Hou, Y. et al. 2018; cited from earlier work
[5] = system: hSOD1^G93A mouse derived astrocytes and motor neurons; conditions: NR or NMN, 5 mM, 24-72 h; Harlan, B. A. et al. 2019; cited from earlier work
Csb^m/m mice = conditions: 500 mg/kg/d (i.p.) 1 week; Scheibye-Knudsen, M. et al. 2014; cited from earlier work
[6] = dose response study, 30 μM (FIG. 1A)

T1 sequence (P43490 whole entry): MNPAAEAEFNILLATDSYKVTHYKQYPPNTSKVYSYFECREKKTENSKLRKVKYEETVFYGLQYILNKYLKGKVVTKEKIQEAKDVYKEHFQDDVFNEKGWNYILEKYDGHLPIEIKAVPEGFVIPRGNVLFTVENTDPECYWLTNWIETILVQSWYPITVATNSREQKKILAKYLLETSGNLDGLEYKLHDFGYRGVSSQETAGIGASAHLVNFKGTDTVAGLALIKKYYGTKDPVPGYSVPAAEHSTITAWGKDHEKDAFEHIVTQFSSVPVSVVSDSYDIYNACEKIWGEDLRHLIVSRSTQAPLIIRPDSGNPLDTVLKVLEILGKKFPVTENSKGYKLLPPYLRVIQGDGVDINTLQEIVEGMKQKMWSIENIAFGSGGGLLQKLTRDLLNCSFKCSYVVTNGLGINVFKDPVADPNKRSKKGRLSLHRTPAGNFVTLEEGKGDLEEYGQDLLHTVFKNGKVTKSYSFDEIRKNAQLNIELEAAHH

SMILES: CC(C)C1(CCN(Cc2ccc3[nH]ccc3c2)C(=O)c2ccco2)CCOC(C)(C)C1 (stereo not drawn) [JGB-1-134, N-((1H-indol-5-yl)methyl)-N-(2-(4-isopropyl-2,2-dimethyltetrahydro-2H-pyran-4-yl)ethyl)furan-2-carboxamide]
ability to raise NAD^+ levels compared to the parent compound NP-A3-B2 (THP-1 human monocytes): significantly greater ability to raise NAD^+ levels
effect on ROS levels at 40 μM ([1]; 1 μg/mL TNFα, 40 μM compound (FIG. 2A)): trended toward ROS mitigation
effect on ROS levels across tested concentrations [1]: little effect until 40 μM

SMILES: COc1ccc(CN(CCC2(C(C)C)CCOC(C)(C)C2)C(=O)c2cccs2)cc1 (stereo not drawn) [JGB-1-137, N-(2-(4-isopropyl-2,2-dimethyltetrahydro-2H-pyran-4-yl)ethyl)-N-(4-methoxybenzyl)thiophene-2-carboxamide]
NAD^+ production in THP-1 (THP-1 human monocytes; SAR summary, thiophene replacement of the R^2 furan (FIGS. 4 and 5)): significantly improved NAD^+ production
potency in THP-1 relative to NP-A3-B2 (cellular EC50 not quantifiable) (THP-1 human monocytes): improved potency
ability to raise NAD^+ levels compared to the parent compound NP-A3-B2 (THP-1 human monocytes): significantly greater ability to raise NAD^+ levels
effect on ROS levels across tested concentrations [1]: dose-dependent downward trend in ROS levels

SMILES: NC(=O)c1ccc[n+]([C@@H]2O[C@H](CO)[C@@H](O)[C@H]2O)c1 [NR]
health- and lifespan of worms (GMC101 worms): Increased health-
proteotoxicity and aggregation of Aβ (GMC101 worms): Reduced
Aβ aggregation (APPSwe/PSEN1dE9 mice): Reduced Aβ
impaired memory (APPSwe/PSEN1dE9 mice): Enhanced
mitochondrial function (APPSwe/PSEN1dE9 mice): Improved
NAD^+ levels and PGC-1α expression [3]: Increased NAD^+
cognitive (novel object recognition) performance [3]: Improved
synaptic plasticity [3]: Improved synaptic
NAD^+/NADH ratio [4]: Increased
learning, memory, motor function, and anxiety [4]: Improved
neurogenesis [4]: Increased
neuroinflammation [4]: Decreased
p-Tau levels [4]: Decreased p-Tau
synaptic plasticity [4]: Restored synaptic
Nrf2 mediated Antioxidant Response Element activation [5]: Increased Nrf2
cerebellar NAD^+ ATP, mitochondrial function (Csb^m/m mice): Rescued
gene profile associated with oxidative stress, DNA repair, mitochondrial function (Csb^m/m mice): Normalized gene

SMILES: O=C(NCc1ccncc1)Nc1ccc(S(=O)(=O)N2CC3CCC(C2)O3)cc1 [SBI-797812]
effect on ROS levels across tested concentrations [1]: no significant effects on ROS at any concentration tested

Second part, led by results:

potency in THP-1 relative to NP-A3-B2 (cellular EC50 not quantifiable) (THP-1 human monocytes): improved potency
SMILES: COc1ccc(CN(CCC2(C(C)C)CCOC(C)(C)C2)C(=O)c2ccsc2)cc1 (stereo not drawn) [JGB-1-127, N-(2-(4-isopropyl-2,2-dimethyltetrahydro-2H-pyran-4-yl)ethyl)-N-(4-methoxybenzyl)thiophene-3-carboxamide]
ability to raise NAD^+ levels compared to the parent compound NP-A3-B2 (THP-1 human monocytes): significantly greater ability to raise NAD^+ levels

IC50 (NAMPT; NAMPT inhibition): 5.32 µM
Amax (NAMPT): 0.25 fold
SMILES: COc1ccc(CN(CCC2(C(C)C)CCOC(C)(C)C2)C(=O)c2cnc[nH]2)cc1 (stereo not drawn) [JGB-1-147, N-(2-(4-isopropyl-2,2-dimethyltetrahydro-2H-pyran-4-yl)ethyl)-N-(4-methoxybenzyl)-1H-imidazole-5-carboxamide]
effect on NAMPT activity (NAMPT): inhibitory activity; also recorded: inhibits NAMPT

EC50 (NAMPT; NAMPT activation): 3.41 µM
potency in THP-1 relative to NP-A3-B2 (cellular EC50 not quantifiable) (THP-1 human monocytes): improved potency
SMILES: CC(C)C1(CCN(Cc2ccc(N(C)C)cc2)C(=O)c2ccco2)CCOC(C)(C)C1 (stereo not drawn) [JGB-1-155, N-(4-(dimethylamino)benzyl)-N-(2-(4-isopropyl-2,2-dimethyltetrahydro-2H-pyran-4-yl)ethyl)furan-2-carboxamide]
activity in THP-1 (THP-1 human monocytes; SAR summary (FIGS. 4 and 5)): improved activity
NAD^+ fold over control (THP-1 human monocytes; [6]): 1.88 fold
increase in NAD^+ over control (THP-1 human monocytes; [6]): 88%
ability to raise NAD^+ levels compared to the parent compound NP-A3-B2 (THP-1 human monocytes): significantly greater ability to raise NAD^+ levels
ROS attenuation relative to other analogs and the hit ([1]; 1 μg/mL TNFα (FIG. 2A)): outperformed all other analogs and the hit in ROS attenuation
activity in HT-22 ([1]; SAR summary, over the 4-methoxy compounds (FIGS. 4 and 5)): improved activity
reduction of TNFα-induced ROS ([1]; further replicates, 20 μM and 40 μM (FIG. 2B)): highly significant reduction of TNFα-induced ROS
effect on ROS levels across tested concentrations [1]: dose-dependent downward trend in ROS levels
ROS-reducing activity against glutamate insult [2]: dose-dependent ROS-reducing activity
ROS levels relative to vehicle treated control ([2]; 20 μM and 40 μM (FIG. 2D)): decreased ROS levels below that of the vehicle treated control
